One experiment deals with T1, PLC-γ1 (Bos taurus, UniProt P08487).
T1 construct: A sample (PLC-γ1) was prepared from bovine thymus according to the method of Y. Homma et al; from tissue; host or cells: bovine thymus
T1 sequence (P08487 1-1291): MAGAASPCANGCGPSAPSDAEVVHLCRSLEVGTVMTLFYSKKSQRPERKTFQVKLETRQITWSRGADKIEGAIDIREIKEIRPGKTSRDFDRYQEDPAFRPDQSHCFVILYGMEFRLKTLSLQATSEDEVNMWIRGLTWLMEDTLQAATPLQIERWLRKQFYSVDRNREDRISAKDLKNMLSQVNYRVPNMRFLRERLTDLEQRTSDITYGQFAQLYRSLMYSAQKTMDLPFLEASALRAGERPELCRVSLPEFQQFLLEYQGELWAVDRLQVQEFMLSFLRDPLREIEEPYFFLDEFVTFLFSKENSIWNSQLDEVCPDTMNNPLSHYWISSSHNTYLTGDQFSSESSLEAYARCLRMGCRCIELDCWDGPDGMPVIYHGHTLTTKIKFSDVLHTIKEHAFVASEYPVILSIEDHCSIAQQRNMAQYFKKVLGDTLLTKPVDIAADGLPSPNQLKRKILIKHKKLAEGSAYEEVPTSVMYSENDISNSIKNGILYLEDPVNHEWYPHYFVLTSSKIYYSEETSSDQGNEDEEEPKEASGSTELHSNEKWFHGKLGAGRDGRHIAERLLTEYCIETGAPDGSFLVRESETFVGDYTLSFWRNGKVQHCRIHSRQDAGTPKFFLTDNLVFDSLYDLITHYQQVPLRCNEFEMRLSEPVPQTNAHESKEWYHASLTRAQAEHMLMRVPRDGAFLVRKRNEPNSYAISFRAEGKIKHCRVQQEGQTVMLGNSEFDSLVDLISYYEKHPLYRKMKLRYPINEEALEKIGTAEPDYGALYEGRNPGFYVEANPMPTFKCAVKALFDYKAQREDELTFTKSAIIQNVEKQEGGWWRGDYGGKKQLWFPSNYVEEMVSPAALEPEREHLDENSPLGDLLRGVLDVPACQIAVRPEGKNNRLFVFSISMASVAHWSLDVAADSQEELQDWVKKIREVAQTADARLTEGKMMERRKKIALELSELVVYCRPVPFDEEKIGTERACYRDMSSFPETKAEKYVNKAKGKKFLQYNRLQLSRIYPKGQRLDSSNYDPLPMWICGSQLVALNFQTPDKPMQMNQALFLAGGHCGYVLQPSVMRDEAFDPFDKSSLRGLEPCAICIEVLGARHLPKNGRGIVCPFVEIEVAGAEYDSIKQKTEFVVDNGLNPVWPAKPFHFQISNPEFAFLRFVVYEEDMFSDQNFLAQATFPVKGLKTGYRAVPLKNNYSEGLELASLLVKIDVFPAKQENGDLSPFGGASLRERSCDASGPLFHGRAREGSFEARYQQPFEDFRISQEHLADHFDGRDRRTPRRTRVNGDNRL
Put plainly: PLC-inhibiting activity (release of [3H]inositol phosphate from [3H]PIP2). It counts as biochemical, bovine. The conditions noted are these: PI-PLC-γ1, 37° C., 10 minutes. The procedure: A sample (PLC-γ1) was prepared from bovine thymus according to the method of Y. Homma et al. described in Biochemical Journal [(Biochem. J.), 269, 13 (1990)]. A solution having the composition listed in Table 1 below was prepared in advance on the ice and the reaction was begun with heating to 37° C. After incubation for 10 minutes, 2 ml of a solution mixture of chloroform/methanol (2:[…]) was added thereto to stop the reaction. The resulting inositol phosphate was extracted with 0.5 ml of 1N hydrochloric acid. Two-phase distribution was carried out by centrifugation (2000×g, 3 minutes), and the amount of ^3 H contained in 0.7 ml of the supernatant was measured with scintillation counter. […] The obtained value of specific radioactivity was defined as "A", the value of specific radioactivity obtained when an equivalent amount of water was added instead of the aqueous solution of the test peptide was defined as "B", the value of specific radioactivity obtained when an equivalent amount of water was added instead of the sample and the aqueous solution of the test peptide was defined as "C", and the inhibition rate (X) was determined according to the following equation. X(%)=[…]

The next experiment deals with KMS-4 cells. The experiment is described as follows: Cell proliferation-inhibiting activity (BrdU incorporation, Amersham Cell Proliferation Detection Kit). It counts as cell-based. The conditions noted are these: 17 hours with peptide, BrdU-stained cells. The procedure: The following procedure was carried out with an Amersham Cell Proliferation Detection Kit. First, cells [KMS-4; M. Nanba et al., International Journal of Cancer, 32, 697 (1983)] were suspended in a DMEM culture medium (product of Nissui Seiyaku) containing 10% fetal calf serum to a concentration of 1-2×10^4 cells/ml, and 1 ml of the above-mentioned cell suspension was put into each well of a 24-well plate (product of Corning Co.). The cells were cultured for 2 days in a CO2 incubator (37° C., 5% CO2). Next, the culture medium was exchanged with a DMEM medium containing 10% fetal calf serum, and then the test peptide was added thereto and culturing was carried out for 17 hours. The culture medium was again exchanged with a serum-free DMEM medium, 0.5 ml of a solution of the reagents labelled 5-bromo-2'-deoxyuridine (BrdU) and 5-fluoro-2'-deoxyuridine (FdU) [10:1] diluted 1000-fold with the same medium was added to each well, and cultured for 2 hours. The culture medium was removed, and the cells were immobilized with an acetic acid/ethanol solution. The immobilized cells were stained according to the method for the Amersham Cell Proliferation Kit, and then further stained with a 1% Giemsa solution (product of Merck Co.). The number of cells incorporating BrdU and the total cell count within 1 field of vision of the microscope (approximately 200 cells) were determined, and the proportion (%) of stained cells per field of vision was calculated. Furthermore, the same procedure was repeated 10 times, and the average value thereof was defined as the cell proliferation activity (%). The cell proliferation-inhibiting activity was calculated in the following manner. The proliferation activity without addition of peptide was defined as "A", the proliferation activity with addition of the test peptide was defined as "B", and the cell proliferation inhibition rate (X) was determined according to the following equation. X (%)=[…]
On the technique in general: Dividing cells build labelled thymidine or BrdU into new DNA.

[1] abbreviates: Concentration 120 μM (aqueous solution of test peptide), read-out: Inhibition rate (%).

Peptide text beside a SMILES is read from it. * marks the point of attachment. Propanoyl(3-cHex) = O=C(CCC1CCCCC1)*; Propanoyl(3-cPent) = O=C(CCC1CCCC1)*; Cyclopropanecarbonyl = O=C(C1CC1)*; Octanoyl = CCCCCCCC(=O)*; X1 = O=C(c1ccc(O)cc1O)*; X2 = O=C(c1ccc(=O)oc1)*; Butyryl = CCCC(=O)*

These results are taken from patent US5580956A, “Phospholipase C-inhibiting peptides” (priority 1992, dated 1996).

As for `CCCCCCCC(=O)N[C@@H](CC(C)C)C(=O)N[C@@H](Cc1ccc(O)cc1)C(=O)N[C@@H](CCCNC(=N)N)C(=O)N[C@@H](CCCCN)C(=O)N[C@@H](CCSC)C(=O)N[C@@H](CCCNC(=N)N)C(=O)N[C@@H](CC(C)C)C(=O)N[C@@H](CCCNC(=N)N)C(=O)N[C@@H](Cc1ccc(O)cc1)C(=O)N1CCC[C@H]1C(=O)N[C@H](C(N)=O)C(C)C` [(I-21), CH3 (CH2)6 CO-Leu-Tyr-Arg-Lys-Met-Arg-Leu-Arg-Tyr-Pro-Val-NH2] (Octanoyl-LYRKMRLRYPV-NH2), the inhibition at 120 µM (stock) on PLC-γ1 (setting [1]) is 86%. The “Cell proliferation inhibition rate (%)” value in the experiment with KMS-4 cells (Concentration 31 μM) is given as 56%.

For “H-SLVELVSYYEKHALYRKMRLRYPV-OH [Compound (I-1)]”, the inhibition at 15 µM (stock) on PLC-γ1 (Concentration 15 μM (aqueous solution of test peptide), read-out: Inhibition rate (%)) came to 55%. The inhibition at 55 µM (stock) on PLC-γ1 (Concentration 55 μM (aqueous solution of test peptide), read-out: Inhibition rate (%)) was 88%. With “n-C3 H7 CO-Leu-Tyr-Arg-Lys-Met-Arg-Leu-Arg-Tyr-Pro-Val-NH2 (Butyryl-LYRKMRLRYPV-NH2; SMILES CCCC(=O)N[C@@H](CC(C)C)C(=O)N[C@@H](Cc1ccc(O)cc1)C(=O)N[C@@H](CCCNC(=N)N)C(=O)N[C@@H](CCCCN)C(=O)N[C@@H](CCSC)C(=O)N[C@@H](CCCNC(=N)N)C(=O)N[C@@H](CC(C)C)C(=O)N[C@@H](CCCNC(=N)N)C(=O)N[C@@H](Cc1ccc(O)cc1)C(=O)N1CCC[C@H]1C(=O)N[C@H](C(N)=O)C(C)C) [Compound (I-11)]”, the “Inhibition rate (%)” value with PLC-γ1 (Concentration 130 μM (aqueous solution of test peptide)) was 31%. Further, the “Cell proliferation inhibition rate (%)” value with KMS-4 cells (Concentration 1 μM) amounted to 86%; in the experiment on KMS-4 cells (Concentration 32 μM), 84%. In the case of `CSCC[C@H](NC(=O)[C@H](CCCCN)NC(=O)[C@H](CCCNC(=N)N)NC(=O)[C@H](Cc1ccc(O)cc1)NC(=O)[C@H](CC(C)C)NC(=O)c1ccc(O)cc1O)C(=O)N[C@@H](CCCNC(=N)N)C(=O)N[C@@H](CC(C)C)C(=O)N[C@@H](CCCNC(=N)N)C(=O)N[C@@H](Cc1ccc(O)cc1)C(=O)N1CCC[C@H]1C(=O)N[C@H](C(N)=O)C(C)C` [(I-14), (HO)2 C6 H3 CO-Leu-Tyr-Arg-Lys-Met-Arg-Leu-Arg-Tyr-Pro-Val-NH2] (X1-LYRKMRLRYPV-NH2), the inhibition at 120 µM (stock) at PLC-γ1 (setting [1]) was found to be 45%. Further, the “Cell proliferation inhibition rate (%)” value in the experiment on KMS-4 cells (Concentration 31 μM) is 59%. With `CSCC[C@H](NC(=O)[C@H](CCCCN)NC(=O)[C@H](CCCNC(=N)N)NC(=O)[C@H](Cc1ccc(O)cc1)NC(=O)[C@H](CC(C)C)NC(=O)c1ccc(=O)oc1)C(=O)N[C@@H](CCCNC(=N)N)C(=O)N[C@@H](CC(C)C)C(=O)N[C@@H](CCCNC(=N)N)C(=O)N[C@@H](Cc1ccc(O)cc1)C(=O)N1CCC[C@H]1C(=O)N[C@H](C(N)=O)C(C)C` [(I-12), C5 H3 O2 CO-Leu-Tyr-Arg-Lys-Met-Arg-Leu-Arg-Tyr-Pro-Val-NH2] (X2-LYRKMRLRYPV-NH2), on PLC-γ1 (setting [1]), the inhibition at 120 µM (stock) is 40%. Also, in the experiment on KMS-4 cells (Concentration 31 μM), the “Cell proliferation inhibition rate (%)” value is reported as 69%. Regarding `CSCC[C@H](NC(=O)[C@H](CCCCN)NC(=O)[C@H](CCCNC(=N)N)NC(=O)[C@H](Cc1ccc(O)cc1)NC(=O)[C@H](CC(C)C)NC(=O)C1CC1)C(=O)N[C@@H](CCCNC(=N)N)C(=O)N[C@@H](CC(C)C)C(=O)N[C@@H](CCCNC(=N)N)C(=O)N[C@@H](Cc1ccc(O)cc1)C(=O)N1CCC[C@H]1C(=O)N[C@H](C(N)=O)C(C)C` [(I-24), C3 H5 CO-Leu-Tyr-Arg-Lys-Met-Arg-Leu-Arg-Tyr-Pro-Val-NH2] (Cyclopropanecarbonyl-LYRKMRLRYPV-NH2), at PLC-γ1 (setting [1]), the inhibition at 120 µM (stock) worked out at 55%. In the experiment on KMS-4 cells (Concentration 32 μM), the “Cell proliferation inhibition rate (%)” value stood at 66%.

Take `CSCC[C@H](NC(=O)[C@H](CCCCN)NC(=O)[C@H](CCCNC(=N)N)NC(=O)[C@H](Cc1ccc(O)cc1)NC(=O)[C@H](CC(C)C)NC(=O)CCC1CCCC1)C(=O)N[C@@H](CCCNC(=N)N)C(=O)N[C@@H](CC(C)C)C(=O)N[C@@H](CCCNC(=N)N)C(=O)N[C@@H](Cc1ccc(O)cc1)C(=O)N1CCC[C@H]1C(=O)N[C@H](C(N)=O)C(C)C` [(I-23), C5 H9 CH2 CH2 CO-Leu-Tyr-Arg-Lys-Met-Arg-Leu-Arg-Tyr-Pro-Val-NH2] ({Propanoyl(3-cPent)}-LYRKMRLRYPV-NH2): the inhibition at 120 µM (stock) on PLC-γ1 (setting [1]) came out at 53%. Besides, the “Cell proliferation inhibition rate (%)” value with KMS-4 cells (Concentration 31 μM) is given as 53%. With `CSCC[C@H](NC(=O)[C@H](CCCCN)NC(=O)[C@H](CCCNC(=N)N)NC(=O)[C@H](Cc1ccc(O)cc1)NC(=O)[C@H](CC(C)C)NC(=O)CCC1CCCCC1)C(=O)N[C@@H](CCCNC(=N)N)C(=O)N[C@@H](CC(C)C)C(=O)N[C@@H](CCCNC(=N)N)C(=O)N[C@@H](Cc1ccc(O)cc1)C(=O)N1CCC[C@H]1C(=O)N[C@H](C(N)=O)C(C)C` [(I-16), C6 H11 CH2 CH2 CO-Leu-Tyr-Arg-Lys-Met-Arg-Leu-Arg-Tyr-Pro-Val-NH2] ({Propanoyl(3-cHex)}-LYRKMRLRYPV-NH2), the inhibition at 120 µM (stock) on PLC-γ1 (setting [1]) was 51%. Moreover, the “Cell proliferation inhibition rate (%)” value in the experiment with KMS-4 cells (Concentration 31 μM) was 84%. For “H-Ser-Leu-Val-Glu-Leu-Val-Ser-Tyr-Tyr-Glu-Lys-His-Ala-OH (H-SLVELVSYYEKHA-OH) [Compound (I-6)]”, in the experiment with PLC-γ1 (Concentration 105 μM (aqueous solution of test peptide)), the “Inhibition rate (%)” value came out at 70%. For “H-Glu-Lys-His-Ala-Leu-Tyr-Arg-Lys-Met -Arg-Leu-Arg-Tyr-Pro-Val-OH (H-EKHALYRKMRLRYPV-OH) [Compound (I-4)]”, the “Inhibition rate (%)” value with PLC-γ1 (Concentration 120 μM (aqueous solution of test peptide)) stood at 73%. On to “H-Leu-Tyr-Arg-Lys-Met-Arg-Leu-Arg-Tyr-Pro-Val-OH (H-LYRKMRLRYPV-OH) [Compound (I-5)]”, for which, in the experiment with PLC-γ1 (Concentration 125 μM (aqueous solution of test peptide)), the “Inhibition rate (%)” value is given as 70%.

Take “H-YRKMRLRY-OH [Compound (I-7), H-Tyr-Arg-Lys-Met-Arg-Leu-Arg-Tyr-OH]”: the inhibition at 120 µM (stock) on PLC-γ1 (setting [1]) came out at 70%.

The term inhibition denotes the percentage by which the read-out fell short of the control.
